Test results from US7112676B2, “Pyrimido compounds having antiproliferative activity” (Hoffmann-La Roche Inc., priority 2002, dated 2006).

Legend:
FGFR = biological target: T1, FGFR; test: FGFR kinase HTRF assay; assay type: biochemical; details: 10 μM ATP, read-out: IC50 (μM) - Enzyme Inhibition Assays FGFR
T1 construct: fused on or other part: GST tag
Protocol: (§1) To determine inhibition of KDR, FGFR, EGFR, and PDGFR activity, kinase assays were conducted using an HTRF (Homogeneous Time Resolved Fluorescence) assay. This assay is described in A. J. Kolb et. al., Drug Discovery Today, 1998, 3(7), p 333.
(§2) Kinase activity assays were performed in 96-well polypropylene plates (Falcon) with a total volume of 90 μL in each well. Each well contained 1 μM KDR substrate (Biotin-EEEEYFELVAKKKK), 1 nM activated KDR, and a test compound with one of 8 assay concentrations ranging from 100 μM to […] (1:5 serial dilution). The kinase activity assay was done in the presence of 100 mM HEPES, pH 7.4, 1 mM DTT, 0.1 mM Na2VO4, 25 mM MgCl2, 50 mM NaCl (from KDR stock solution), 1% DMSO (from compound), 0.3 mM ATP (at Km concentration) and 0.02% BSA. The reaction was incubated at 37° C. for 30 minutes. To stop the KDR reaction, 72 μL of reaction mixture was transferred into a STOP plate containing 18 μL of revelation buffer (20 mM EDTA, 50 mM HEPES, pH 7.4, 0.02% BSA, 10 nM Eu-labelled anti-pY antibody (final conc. 2 nM), and 100 nM streptavidin (final conc. 20 nM)). After mixing, 35 μL of solution was transferred into duplicate wells of a 384-well black plate (Costar), and read at 615/665 nm on a Wallac Victor 5 reader.
FGFR, EGFR, and PDGFR activity assays were carried out as described above for the KDR activity assay with the following differences. GST-tagged FGFR enzyme was activated at room temperature for 1 hour in the following activation buffer: 100 mM HEPES, pH 7.4, 50 mM NaCl, 20 mM MgCl2, and 4 mM ATP. The kinase activity assay was performed with 1 μM substrate (Biotin-EEEEYFELV), 1.5 nM activated FGFR, and test compound in the presence of 100 mM HEPES, 1 mM DTT, 0.4 mM MgCl2, 0.4 mM MnCl2, 50 mM NaCl, 1% DMSO, 10 μM ATP (Km=8.5 μM for FGFR), 0.1 mM Na2VO4, and 0.02% BSA, in a total volume of 90 μL. The rest of the assay was performed in the same manner as KDR assay.
(§3) Compound IC50 values were determined from duplicate sets of data, and calculated by using Excel and fitting data to equation Y=[(a−b)/{1+(X/c)^d]+b, where a and b are enzyme activity in the presence of no test inhibitor compound and an infinite amount of inhibitor test compound, respectively, c is the IC50 and d is the hill constant of the compound response. The IC50 value is the concentration of test compound that reduces by 50% the enzyme activity under the test conditions described.

EGFR = EGFR (Homo sapiens, UniProt P00533); test: EGFR kinase HTRF assay; assay type: biochemical; details: 0.5 μM ATP, read-out: IC50 (μM) - Enzyme Inhibition Assays EGFR
Protocol: as §1, §2
The EGFR kinase activity assay was performed with 1 μM substrate (Biotin-EEEEYFELV), 1.5 nM EGFR, test compounds, 100 mM HEPES, pH 7.4, 1 mM DTT, 5 mM MgCl2, 2 mM MnCl2, 1% DMSO, 0.5 μM ATP (Km for EGFR), 0.1 mM Na2VO4, and 0.02% BSA. The rest of the assay was performed in the same manner as the KDR assay.
as §3

EGFR, sequence (P00533 25-1210, species assumed): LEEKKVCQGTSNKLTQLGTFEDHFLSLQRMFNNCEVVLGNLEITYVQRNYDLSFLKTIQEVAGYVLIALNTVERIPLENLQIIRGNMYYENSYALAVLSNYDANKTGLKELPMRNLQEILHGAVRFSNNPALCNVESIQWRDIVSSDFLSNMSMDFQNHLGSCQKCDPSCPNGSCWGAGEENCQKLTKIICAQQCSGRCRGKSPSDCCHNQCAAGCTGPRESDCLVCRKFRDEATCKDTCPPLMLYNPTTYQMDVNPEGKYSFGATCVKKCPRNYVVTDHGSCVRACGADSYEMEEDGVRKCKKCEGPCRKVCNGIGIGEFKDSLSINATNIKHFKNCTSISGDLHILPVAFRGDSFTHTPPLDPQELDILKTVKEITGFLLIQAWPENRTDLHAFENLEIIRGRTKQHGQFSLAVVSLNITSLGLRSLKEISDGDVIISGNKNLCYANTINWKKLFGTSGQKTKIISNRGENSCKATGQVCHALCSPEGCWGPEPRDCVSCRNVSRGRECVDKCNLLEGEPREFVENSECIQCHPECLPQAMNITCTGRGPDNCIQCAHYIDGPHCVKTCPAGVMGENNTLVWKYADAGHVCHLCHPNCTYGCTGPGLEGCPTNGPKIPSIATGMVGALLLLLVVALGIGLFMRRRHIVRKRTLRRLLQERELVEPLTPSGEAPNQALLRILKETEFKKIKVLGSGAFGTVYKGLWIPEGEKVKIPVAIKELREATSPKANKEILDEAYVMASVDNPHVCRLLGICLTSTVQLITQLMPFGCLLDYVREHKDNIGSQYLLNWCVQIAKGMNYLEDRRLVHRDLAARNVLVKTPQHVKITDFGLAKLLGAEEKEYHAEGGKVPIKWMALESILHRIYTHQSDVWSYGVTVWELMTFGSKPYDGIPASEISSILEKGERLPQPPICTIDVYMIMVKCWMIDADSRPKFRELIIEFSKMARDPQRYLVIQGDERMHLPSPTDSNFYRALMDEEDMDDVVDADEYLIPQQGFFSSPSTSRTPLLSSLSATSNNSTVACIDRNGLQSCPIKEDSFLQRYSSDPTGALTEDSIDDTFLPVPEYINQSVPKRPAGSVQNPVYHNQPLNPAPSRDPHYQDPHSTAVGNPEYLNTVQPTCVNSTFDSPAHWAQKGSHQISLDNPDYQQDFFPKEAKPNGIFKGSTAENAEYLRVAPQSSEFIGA

Row | Structure (SMILES) | melting point [°C] | IC50 (FGFR) [µM] | IC50 (EGFR) [µM]
1 | COc1ccc(N2C(=O)N(c3ccccc3)c3nc(Nc4ccccc4)ncc3[C@@H]2C)cc1 (single isomer, unassigned) [Example 3] | 223 to 236 | < 10 | < 10
2 | COc1ccc(N2C(=O)N(c3ccc(OC)cc3)C(C)c3cnc(Nc4ccccc4)nc32)cc1 (racemic) [Example 4b, (±)-1,3-Bis-(4-methoxy-phenyl)-4-methyl-7-phenylamino-3,4-dihydro-1H-pyrimido[4,5-d]pyrimidin-2-one] | 228 to 234 | < 10 | < 10
3 | COc1ccc(N2C(=O)N(c3ccccc3)c3nc(Nc4ccccc4)ncc3C2C)cc1 (racemic) [Example 1g, (±)-3-(4-Methoxy-phenyl)-4-methyl-1-phenyl-7-phenylamino-3,4-dihydro-1H-pyrimido[4,5-d]pyrimidin-2-one] | 222 to 234 | < 10 | < 10
4 | COc1ccc(N2C(=O)N(c3cccc(C(N)=O)c3)c3nc(Nc4ccccc4)ncc3C2C)c(F)c1 (racemic) [Example 10, (±)-3-[3-(2-Fluoro-4-methoxy-phenyl)-4-methyl-2-oxo-7-phenylamino-3,4-dihydro-2H-pyrimido[4,5-d]pyrimidin-1-yl]-benzamide] | 282 to 286 | < 10 | < 10
5 | COc1ccc(N2C(=O)N(c3cccc(C#N)c3)c3nc(Nc4ccccc4)ncc3C2C)cc1 (racemic) [Example 5b, (±)-3-[3-(4-Methoxy-phenyl)-4-methyl-2-oxo-7-phenylamino-3,4-dihydro-2H-pyrimido[4,5-d]pyrimidin-1-yl]-benzonitrile] | 224 to 228 | < 10 | < 10

Continued, values first:

Row | melting point [°C] | IC50 (FGFR) [µM] | IC50 (EGFR) [µM] | Structure (SMILES)
6 | 268 to 273 | < 10 | < 10 | COc1ccc(N2C(=O)N(c3cccc(C(N)=O)c3)c3nc(Nc4ccccc4)ncc3C2C)cc1 (racemic) [Example 6, (±)-3-[3-(4-Methoxy-phenyl)-4-methyl-2-oxo-7-phenylamino-3,4-dihydro-2H-pyrimido[4,5-d]pyrimidin-1-yl]-benzamide]
7 | 195 to 198 | < 10 | < 10 | COc1ccc(N2C(=O)N([C@H](C)CO)c3nc(Nc4ccccc4)ncc3[C@@H]2C)cc1 [Example 15b, 1-(2-Hydroxy-1-(R)-methyl-ethyl)-3-(4-methoxy-phenyl)-4-(S)-methyl-7-phenylamino-3,4-dihydro-1H-pyrimido[4,5-d]pyrimidin-2-one]
8 | 242 to 250 | < 10 | < 10 | COc1ccc(N2C(=O)N(c3ccccc3)c3nc(Nc4ccccc4)ncc3C2C)c(F)c1 (racemic) [Example 8d, (±)-3-(2-Fluoro-4-methoxy-phenyl)-4-methyl-1-phenyl-7-phenylamino-3,4-dihydro-1H-pyrimido[4,5-d]pyrimidin-2-one]
9 | 223 to 228 | < 10 | < 10 | COc1ccc(N2C(=O)N(c3cccc(C#N)c3)c3nc(Nc4ccccc4)ncc3C2C)c(F)c1 (racemic) [Example 9b, (±)-3-[3-(2-Fluoro-4-methoxy-phenyl)-4-methyl-2-oxo-7-phenylamino-3,4-dihydro-2H-pyrimido[4,5-d]pyrimidin-1-yl]-benzonitrile]
